Data taken from ChEMBL document CHEMBL1255348, “Susceptibility testing of anidulafungin and voriconazole alone and in combination against conidia and hyphae of Aspergillus spp. under hypoxic conditions” (2008).
≈ marks a conversion by molar mass, not a printed value. *1 amine or outer side, *2 acyl side, *3 side chain or, on linkers, in order; H or OH if unused. Where a SMILES comes first, the peptide text is derived from it. Bridges are numbered along the chain shown (N, C = ends). [ ]: non-standard residue; d: D form. The star is where a group is joined. pTerphenylCO(4''-OnC5H11) = CCCCCOc1ccc(-c2ccc(-c3ccc(C(=O)*)cc3)cc2)cc1; Orn(4R-OH,5R-OH) = O=C([C@H](C[C@@H](O)[C@@H](O)N[*:3])N[*:1])[*:2]; hTyr(3S-OH,4S-OH) = N[C@H](C(=O)O)[C@H](O)[C@@H](O)c1ccc(O)cc1; Pro(3S-OH,4S-Me) = C[C@H]1CN[C@H](C(=O)O)[C@H]1O; Hyp = O=C(O)[C@@H]1C[C@@H](O)CN1

Tests used:
Type in all cases: functional
Aspergillus fumigatus [1] = experiment: Antimicrobial activity against Aspergillus fumigatus conidia isolated from aspergillosis patient after 48 hrs under hypoxic condition by broth microdilution method
Aspergillus terreus [2] = experiment: Antimicrobial activity against Aspergillus terreus conidia isolated from aspergillosis patient after 48 hrs under hypoxic condition by broth microdilution method
Aspergillus flavus [3] = experiment: Antimicrobial activity against Aspergillus flavus conidia isolated from aspergillosis patient after 48 hrs under hypoxic condition by broth microdilution method
Aspergillus niger [4] = experiment: Antimicrobial activity against Aspergillus niger conidia isolated from aspergillosis patient after 48 hrs under hypoxic condition by broth microdilution method
Aspergillus fumigatus [5] = experiment: Antimicrobial activity against Aspergillus fumigatus hyphae isolated from aspergillosis patient after 48 hrs under hypoxic condition by broth microdilution method
Aspergillus terreus [6] = experiment: Antimicrobial activity against Aspergillus terreus hyphae isolated from aspergillosis patient after 48 hrs under hypoxic condition by broth microdilution method
Aspergillus flavus [7] = experiment: Antimicrobial activity against Aspergillus flavus hyphae isolated from aspergillosis patient after 48 hrs under hypoxic condition by broth microdilution method
Aspergillus niger [8] = experiment: Antimicrobial activity against Aspergillus niger hyphae isolated from aspergillosis patient after 48 hrs under hypoxic condition by broth microdilution method
Aspergillus fumigatus [9] = experiment: Antimicrobial activity against Aspergillus fumigatus conidia isolated from aspergillosis patient after 48 hrs under hypoxic condition by broth microdilution method in presence of voriconazole
Aspergillus terreus [10] = experiment: Antimicrobial activity against Aspergillus terreus conidia isolated from aspergillosis patient after 48 hrs under hypoxic condition by broth microdilution method in presence of voriconazole
Aspergillus flavus [11] = experiment: Antimicrobial activity against Aspergillus flavus conidia isolated from aspergillosis patient after 48 hrs under hypoxic condition by broth microdilution method in presence of voriconazole
Aspergillus niger [12] = experiment: Antimicrobial activity against Aspergillus niger conidia isolated from aspergillosis patient after 48 hrs under hypoxic condition by broth microdilution method in presence of voriconazole
Aspergillus fumigatus [13] = experiment: Antimicrobial activity against Aspergillus fumigatus hyphae isolated from aspergillosis patient after 48 hrs under hypoxic condition by broth microdilution method in presence of voriconazole
Aspergillus terreus [14] = experiment: Antimicrobial activity against Aspergillus terreus hyphae isolated from aspergillosis patient after 48 hrs under hypoxic condition by broth microdilution method in presence of voriconazole
Aspergillus flavus [15] = experiment: Antimicrobial activity against Aspergillus flavus hyphae isolated from aspergillosis patient after 48 hrs under hypoxic condition by broth microdilution method in presence of voriconazole
Aspergillus niger [16] = experiment: Antimicrobial activity against Aspergillus niger hyphae isolated from aspergillosis patient after 48 hrs under hypoxic condition by broth microdilution method in presence of voriconazole

Compound | MIC (Aspergillus fumigatus [1]) | MIC (Aspergillus terreus [2]) | MIC (Aspergillus flavus [3]) | MIC (Aspergillus niger [4]) | MIC (Aspergillus fumigatus [5]) | MIC (Aspergillus terreus [6]) | MIC (Aspergillus flavus [7]) | MIC (Aspergillus niger [8]) | fractional inhibitory concentration index (FICI) (Aspergillus fumigatus [9]) | fractional inhibitory concentration index (FICI) (Aspergillus terreus [10]) | fractional inhibitory concentration index (FICI) (Aspergillus flavus [11]) | fractional inhibitory concentration index (FICI) (Aspergillus niger [12]) | fractional inhibitory concentration index (FICI) (Aspergillus fumigatus [13]) | fractional inhibitory concentration index (FICI) (Aspergillus terreus [14]) | fractional inhibitory concentration index (FICI) (Aspergillus flavus [15]) | fractional inhibitory concentration index (FICI) (Aspergillus niger [16])
C[C@@H](c1ncncc1F)[C@](O)(Cn1cncn1)c1ccc(F)cc1F [VORICONAZOLE] | 0.5 µg/mL (≈ 1.43 µM) | 1 µg/mL (≈ 2.86 µM) | 1 µg/mL (≈ 2.86 µM) | 1 µg/mL (≈ 2.86 µM) | 1 µg/mL (≈ 2.86 µM) | 1 µg/mL (≈ 2.86 µM) | 2 µg/mL (≈ 5.73 µM) | 1 µg/mL (≈ 2.86 µM) | – | – | – | – | – | – | – | –
CCCCCOc1ccc(-c2ccc(-c3ccc(C(=O)N[C@H]4C[C@@H](O)[C@@H](O)NC(=O)[C@@H]5[C@@H](O)[C@@H](C)CN5C(=O)[C@H]([C@@H](C)O)NC(=O)[C@H]([C@H](O)[C@@H](O)c5ccc(O)cc5)NC(=O)[C@@H]5C[C@@H](O)CN5C(=O)[C@H]([C@@H](C)O)NC4=O)cc3)cc2)cc1 [ANIDULAFUNGIN] ({pTerphenylCO(4''-OnC5H11)}-[Orn(4R-OH,5R-OH)]T[Hyp][hTyr(3S-OH,4S-OH)]T[Pro(3S-OH,4S-Me)]; lactam 1-C) | 0.01 µg/mL (≈ 0.00877 µM) | 0.01 µg/mL (≈ 0.00877 µM) | 0.06 µg/mL (≈ 0.0526 µM) | 0.008 µg/mL (≈ 0.00702 µM) | 0.03 µg/mL (≈ 0.0263 µM) | 0.01 µg/mL (≈ 0.00877 µM) | 0.03 µg/mL (≈ 0.0263 µM) | 0.01 µg/mL (≈ 0.00877 µM) | 0.7 | 0.9 | 0.7 | 0.5 | 1 | 0.8 | 1 | 0.7
